According to article PMC12221116, “Novel Quinazolinones Active against Multidrug‐Resistant Mycobacterium Tuberculosis: Synthesis, Antimicrobial Evaluation, and in Silico Exploration of Penicillin‐Binding Protein 1A as a Potential Target” (Chemmedchem, 2025):
≈ marks a conversion by molar mass, not a printed value. Read-outs that look alike come from different tables or passages of the source.

Key:
Fungi = experiment: Antifungal microdilution screening (eight strains); type: cell-based; conditions: read after 24 and 48 h (72 and 120 h for TI), highest tested concentration 500 μM
HepG2 [1] = conditions: for IC50: cytotoxicity
Mtb H37Ra = experiment: Microdilution broth resazurin assay, MIC; type: cell-based, Mycobacterium tuberculosis; conditions: for MIC: Mycobacterium tuberculosis, H37RA
HepG2 [2] = experiment: cells; conditions: Homo sapiens, HepG2, 24 h, read-out: IC50 for HepG2 [24 h]
MRC-5 [3] = experiment: cells; conditions: Homo sapiens, MRC5, 24 h, read-out: IC50 for MRC-5 [24 h]
MDR Mtb H37Rv = experiment: microbe, parasite or virus in culture; type: cell-based; conditions: Mycobacterium tuberculosis, read-out: MIC MDR Mtb H37Rv
M. smegmatis = experiment: Microdilution broth resazurin assay, MIC; type: cell-based, Mycolicibacterium smegmatis
Bacteria, incl. SA = experiment: Antibacterial microdilution screening (eight strains); type: cell-based; conditions: read after 24 and 48 h, highest tested concentration 500 μM
MRC-5 [4] = conditions: for IC50: cytotoxicity
M. kansasii = experiment: Microplate Alamar Blue assay, MIC; type: cell-based, Mycobacterium kansasii
M. avium = experiment: Microdilution broth resazurin assay, MIC; type: cell-based, Mycobacterium avium
Mtb H37Rv = experiment: Microplate Alamar Blue assay, MIC; type: cell-based, Mycobacterium tuberculosis; conditions: for MIC: Mycobacterium tuberculosis, H37RV
M. aurum = experiment: Microdilution broth resazurin assay, MIC; type: cell-based, Mycolicibacterium aurum
[5] = tested on: Mycobacterium tuberculosis; conditions: target CHEMBL360; ref ChEMBL; cited from earlier work
[6] = tested on: Staphylococcus aureus subsp. aureus, MRSA ATCC 43300, CCM 4750; experiment: Antibacterial microdilution broth, quality standards; type: cell-based; conditions: 24 h
[7] = tested on: Staphylococcus aureus subsp. aureus ATCC 29213, CCM 4223; experiment: as above; type: cell-based; conditions: 24 h
[8] = tested on: Acinetobacter baumannii ATCC 19606, DSM 30007; experiment: as above; type: cell-based; conditions: 24 h
[9] = tested on: Escherichia coli ATCC 25922, CCM 3954; experiment: as above; type: cell-based; conditions: 24 h
[10] = tested on: Pseudomonas aeruginosa ATCC 27853, CCM 3955; experiment: as above; type: cell-based; conditions: 24 h
[11] = tested on: Klebsiella pneumoniae ATCC 10031, CCM 4415; experiment: as above; type: cell-based; conditions: 24 h
[12] = tested on: Staphylococcus epidermidis ATCC 12228, CCM 4418; experiment: as above; type: cell-based; conditions: 24 h
[13] = tested on: Enterococcus faecalis ATCC 29212, CCM 4224; experiment: as above; type: cell-based; conditions: 24 h
[14] = tested on: Lichtheimia corymbifera CCM 8077; experiment: Antifungal microdilution broth, quality standards; type: cell-based; conditions: CCM8077, 48 h
[15] = tested on: Candida tropicalis ATCC 750, CCM 8264; experiment: Antifungal microdilution broth, quality standards; type: cell-based; conditions: 24 h, read-out: MIC, visual detection, Candida tropicalis
[16] = tested on: Candida albicans ATCC 24433, CCM 8320; experiment: Antifungal microdilution broth, quality standards; type: cell-based; conditions: 24 h
[17] = tested on: Aspergillus fumigatus ATCC 204305; experiment: Antifungal microdilution broth, quality standards; type: cell-based; conditions: ATCC204305, 48 h
[18] = tested on: Candida parapsilosis ATCC 22019, CCM 8260; experiment: Antifungal microdilution broth, quality standards; type: cell-based; conditions: Lodderomyces parapsilosis, 24 h
[19] = tested on: Aspergillus flavus CCM 8363; experiment: Antifungal microdilution broth, quality standards; type: cell-based; conditions: CCM8363, 48 h
[20] = tested on: Candida krusei ATCC 6258, CCM 8271; experiment: Antifungal microdilution broth, quality standards; type: cell-based; conditions: Pichia kudriavzevii, 24 h, read-out: MIC, visual detection, Candida krusei
[21] = tested on: Trichophyton interdigitale ATCC 9533, CCM 8377; experiment: Antifungal microdilution broth, quality standards; type: cell-based; conditions: 120 h
[22] = Table S5 matching pairs series A and B

SMILES: Cc1nc2cc(Cl)ccc2c(=O)n1/N=C/c1ccc(O)c([N+](=O)[O-])c1 [Compound 25]
- MIC Fungi (Fungi): inactive
- nontoxic for human cell lines up to (HepG2 [1]; HepG2): up to 1000 μM
- MIC (Mtb H37Ra; calculated from the measured MIC in mass concentration units, read-out: MIC Mtb H37Ra): 87 µM
- MIC (Mtb H37Ra; read-out: Antimycobacterial Activity MIC Mtb H37Ra): 31.2 µg/mL
- IC50 (HepG2 [2]): > 1000 µM
- IC50 (MRC-5 [3]): > 1000 µM
- MIC (MDR Mtb H37Rv): 17 to 70 µM (≈ 6.1 to 25.1 µg/mL)
- MIC (M. smegmatis; Mycolicibacterium smegmatis, read-out: Antimycobacterial Activity MIC M. smeg.): 31.2 µg/mL (≈ 87.1 µM)
- MIC Bacteria, incl. SA (Bacteria, incl. SA): inactive
- nontoxic for human cell lines up to (MRC-5 [4]; MRC-5): up to 1000 μM
- MIC (M. kansasii; Mycobacterium kansasii, read-out: Antimycobacterial Activity MIC M. kans.): > 100 µg/mL
- MIC (M. avium; Mycobacterium avium, read-out: Antimycobacterial Activity MIC M. avium): 62.5 µg/mL (≈ 174 µM)
- MIC (Mtb H37Rv; Microplate Alamar Blue assay, read-out: Antimycobacterial Activity MIC Mtb H37Rv): 12.5 µg/mL
- MIC (Mtb H37Rv; calculated from the measured MIC in mass concentration units, read-out: MIC Mtb H37Rv): 35 µM
- MIC (M. aurum; Mycolicibacterium aurum, read-out: Antimycobacterial Activity MIC M. aurum): ≥ 62.5 µg/mL

SMILES: C#CCNc1ccc2c(=O)n(-c3ccccc3)c(C)nc2c1 [CHEMBL4444032]
- MIC Mycobacterium tuberculosis [5]: 4 µg/mL (≈ 13.8 µM)

SMILES: CNC(C)C1CCC(N)C(OC2C(N)CC(N)C(OC3OCC(C)(O)C(NC)C3O)C2O)O1 (stereo not drawn) [gentamicin]
- MIC ([6]; 95% growth inhibition, read-out: MIC spectrophotometric detection, MRSA): 16 to 32 µg/mL (≈ 33.5 to 67 µM)
- MIC ([6]; naked eye, read-out: MIC visual detection, MRSA): 16 to 32 µg/mL (≈ 33.5 to 67 µM)
- MIC ([7]; 95% growth inhibition, read-out: MIC spectrophotometric detection, S. aureus): 1 µg/mL (≈ 2.09 µM)
- MIC ([7]; naked eye, read-out: MIC visual detection, S. aureus): 1 µg/mL (≈ 2.09 µM)
- MIC ([8]; 95% growth inhibition, read-out: MIC spectrophotometric detection, A. baumannii): 2 µg/mL (≈ 4.19 µM)
- MIC ([8]; naked eye, read-out: MIC visual detection, A. baumannii): 2 µg/mL (≈ 4.19 µM)
- MIC ([9]; 95% growth inhibition, read-out: MIC spectrophotometric detection, E. coli): 1 to 2 µg/mL (≈ 2.09 to 4.19 µM)
- MIC ([9]; naked eye, read-out: MIC visual detection, E. coli): 1 to 2 µg/mL (≈ 2.09 to 4.19 µM)
- MIC ([10]; 95% growth inhibition, read-out: MIC spectrophotometric detection, P. aeruginosa): 0.5 µg/mL (≈ 1.05 µM)
- MIC ([10]; naked eye, read-out: MIC visual detection, P. aeruginosa): 0.5 µg/mL (≈ 1.05 µM)
- MIC ([11]; 95% growth inhibition, read-out: MIC spectrophotometric detection, K. pneumoniae): > 8 µg/mL
- MIC ([11]; naked eye, read-out: MIC visual detection, K. pneumoniae): > 8 µg/mL
- MIC ([12]; 95% growth inhibition, read-out: MIC spectrophotometric detection, S. epidermidis): > 8 µg/mL
- MIC ([12]; naked eye, read-out: MIC visual detection, S. epidermidis): > 8 µg/mL
- MIC ([13]; read-out: MIC spectrophotometric detection, E. faecalis): 16 µg/mL (≈ 33.5 µM)
- MIC ([13]; naked eye, read-out: MIC visual detection, E. faecalis): 8 µg/mL (≈ 16.8 µM)

SMILES: COc1cccc(Cn2c(C)nc3ccccc3c2=O)c1 [Compound 2]
- IC50 (HepG2 [1]; read-out: IC50 for HepG2 [24 h], 24 h incubation): 305 ± 3 µM
- IC50 (HepG2 [1]; read-out: IC50 for HepG2 [72 h], 72 h incubation): 135 ± 6 µM
- Antimycobacterial Activity MIC Mtb H37Ra (Mtb H37Ra): 62.5 µg/mL
- Antimycobacterial Activity MIC Mtb H37Ra (Mtb H37Ra; [22]): 62.5 µg/mL
- Antimycobacterial Activity MIC M. smeg. (M. smegmatis): 250 µg/mL
- Antimycobacterial Activity MIC M. smeg. (M. smegmatis; [22]): 250 µg/mL
- IC50 (MRC-5 [4]; read-out: IC50 for MRC-5 [24 h], 24 h incubation): > 300 µM
- IC50 (MRC-5 [4]; read-out: IC50 for MRC-5 [72 h], 72 h incubation): 215 ± 24 µM
- Antimycobacterial Activity MIC M. kans. (M. kansasii): 100 µg/mL
- Antimycobacterial Activity MIC M. avium (M. avium): 62.5 µg/mL
- Antimycobacterial Activity MIC M. avium (M. avium; [22]): 62.5 µg/mL
- Antimycobacterial Activity MIC Mtb H37Rv (Mtb H37Rv; Microplate Alamar Blue assay): 100 µg/mL
- Antimycobacterial Activity MIC M. aurum (M. aurum): 125 µg/mL
- Antimycobacterial Activity MIC M. aurum (M. aurum; [22]): 125 µg/mL

SMILES: C[C@@H](c1ncncc1F)[C@](O)(Cn1cncn1)c1ccc(F)cc1F [voriconazole]
- IC50 ([14]; read-out: IC50, spectrophotometric detection, Lichtheimia corymbifera): > 16 µg/mL
- MIC ([14]; read-out: MIC, visual detection, Lichtheimia corymbifera): > 16 µg/mL
- MIC [15]: > 16 µg/mL
- IC50 ([16]; read-out: IC50, spectrophotometric detection, Candida albicans): 0.03 µg/mL (≈ 0.0859 µM)
- MIC ([16]; read-out: MIC, visual detection, Candida albicans): > 16 µg/mL
- IC50 ([17]; read-out: IC50, spectrophotometric detection, Aspergillus fumigatus): 0.5 µg/mL (≈ 1.43 µM)
- MIC ([17]; read-out: MIC, visual detection, Aspergillus fumigatus): 1 µg/mL (≈ 2.86 µM)
- IC50 ([18]; read-out: IC50, spectrophotometric detection, Candida parapsilosis): 0.03 µg/mL (≈ 0.0859 µM)
- MIC ([18]; read-out: MIC, visual detection, Candida parapsilosis): 8 µg/mL (≈ 22.9 µM)
- IC50 ([19]; read-out: IC50, spectrophotometric detection, Aspergillus flavus): 4 µg/mL (≈ 11.5 µM)
- MIC ([19]; read-out: MIC, visual detection, Aspergillus flavus): > 16 µg/mL
- MIC [20]: 0.5 µg/mL (≈ 1.43 µM)
- IC50 ([21]; read-out: IC50, spectrophotometric detection, Trichophyton interdigitale): > 16 µg/mL
- MIC ([21]; read-out: MIC, visual detection, Trichophyton interdigitale): > 16 µg/mL
